{"source": "patent US6399782B1", "about": "“Benzimidazole inhibitors of fructose 1,6-bisphosphatase” (Metabasis Therapeutics, Inc., priority 1997, dated 2002)", "key": {"rat hepatocytes": {"tested_on": "rat hepatocytes", "experiment": "Inhibition of gluconeogenesis in rat hepatocytes", "format": "cell-based", "method": "Hepatocytes were prepared from overnight fasted Sprague-Dawley rats (250-300 g) according to the procedure of Berry and Friend (Berry, M. N., Friend, D. S., 1969, J. Cell. Biol. 43, 506-520) as modified by Groen (Groen, A. K., Sips, H. J., Vervoorn, R. C., Tager, J. M., 1982, Eur. J. Biochem. 122, 87-93). Hepatocytes (75 mg wet weight/mL) were incubated in 1 ml Krebs-bicarbonate buffer containing 10 mM Lactate, 1 mM pyruvate, 1 mg/mL BSA, and test compound concentrations from 1 to 500 μM. Incubations were carried out in a 95% oxygen, 5% carbon dioxide atmosphere in closed, 50-mL Falcon tubes submerged in a rapidly shaking water bath (37° C.). After 1 hour, an aliquot (0.25 mL) was removed, transferred to an Eppendorf tube and centrifuged. 50 μL of supernatant was then assayed for glucose content using a Sigma Glucose Oxidase kit as per the manufacturer's instructions."}, "human liver FBPase": {"target": "T1, human liver FBPase (Homo sapiens, UniProt P09467)", "T1 construct": "made in house; host or cells: E. coli BL21", "T1 sequence (P09467 2-338 limits assumed)": "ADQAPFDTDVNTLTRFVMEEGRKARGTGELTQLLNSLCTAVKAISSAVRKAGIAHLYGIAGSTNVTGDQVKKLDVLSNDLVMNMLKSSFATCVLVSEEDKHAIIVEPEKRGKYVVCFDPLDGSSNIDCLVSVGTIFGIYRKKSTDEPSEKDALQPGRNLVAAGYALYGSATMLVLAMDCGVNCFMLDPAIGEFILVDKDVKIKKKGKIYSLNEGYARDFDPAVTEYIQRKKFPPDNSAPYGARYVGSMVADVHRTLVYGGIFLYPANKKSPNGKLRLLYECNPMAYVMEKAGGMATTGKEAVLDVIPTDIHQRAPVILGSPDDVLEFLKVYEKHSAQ", "experiment": "Inhibition of human liver FBPase", "format": "biochemical", "conditions": "for inhibition of human liver FBPase activity (FIG. 2): result in words", "quoted_text": "Enzymatic activity was measured spectrophotometrically in reactions that coupled the formation of product (fructose 6-phosphate) to the reduction of dimethylthiazoldiphenyltetrazolium bromide (MTT) via NADP and phenazine methosulfate (PMS), using phosphoglucose isomerase and glucose 6-phosphate dehydrogenase as the coupling enzymes. Reaction mixtures (200 μl) were made up in 96-well microtitre plates, and consisted of 50 mM Tris-HCl, pH 7.4, 100 mM KCl, 5 mM EGTA, 2 mM MgCl2, 0.2 mM NADP, 1 mg/ml BSA, 1 mM MTT, 0.6 mM PMS, 1 unit/mL phosphoglucose isomerase, 2 units/mL glucose 6-phosphate dehydrogenase, and 0.150 mM substrate (fructose 1,6-bisphosphate). Inhibitor concentrations were varied from 0.01 μM to 10 μM. Reactions were started by the addition of 0.002 units of pure hlFBPase and were monitored for 7 minutes at 590 nm in a Molecular Devices Plate Reader (37° C.)."}, "[1]": {"tested_on": "fasted Sprague Dawley rats", "experiment": "Blood glucose lowering in fasted rats", "format": "in vivo, rat", "conditions": "20 mg/kg intraperitoneally, 18 hours fasted Sprague Dawley rats, one hour post injection", "method": "Sprague Dawley rats (250-300 g) were fasted for 18 hours and then dosed intraperitoneally with 20 mg/kg of compounds 12.53, 12.61, or 12.64. The vehicle used for drug administration was 50 mM sodium bicarbonate. Blood samples were obtained from the tail vein of conscious animals just prior to injection and one hour post injection. Blood glucose was measured using a HemoCue Inc. glucose analyzer according to the instructions of the manufacturer."}, "hlFBPase": {"target": "T2, hlFBPase (Homo sapiens, UniProt P09467)", "T2 construct": "made in house; host or cells: E. coli BL21", "T2 sequence (P09467 2-338 limits assumed)": "T1 sequence (P09467 2-338 limits assumed)", "experiment": "AMP site binding (displacement of radiolabeled AMP)", "method": "To determine whether compounds bind to the allosteric AMP binding site of hlFBPase, the enzyme was incubated with radiolabeled AMP in the presence of a range of test compound concentrations. The reaction mixtures consisted of […] ^3H-AMP (54 mCi/mmol) and […] test compound in 25 mM Tris-HCl, pH 7.4, 100 mM KCl and 1 mM MgCl2. 1.45 mg of homogeneous FBPase (±1 nmole) was added last. After a 1 minute incubation, AMP bound to FBPase was separated from unbound AMP by means of a centrifugal ultrafiltration unit (“Ultrafree-MC”, Millipore) used according to the instructions of the manufacturer. The radioactivity in aliquots (100 μL) of the upper compartment of the unit (the retentate, which contrains enzyme and label) and the lower compartment (the filtrate, which contains unbound label) were quantified using a Beckman liquid scintillation counter. The amount of AMP bound to the enzyme was estimated by comparing the counts in the filtrate (the unbound label) to the total counts in the retentate."}, "[2]": {"experiment": "Estimation of the oral bioavailability of prodrugs of phosphonic acids", "format": "in vivo", "conditions": "rat; for % Oral bioavailability: prodrug by oral gavage approximately 20 or 40 mg/kg parent equivalents, urinary recovery of parent vs i.v. parent", "method": "Prodrugs were dissolved in 10% ethanol/90% polyethylene glycol (mw 400) and administered by oral gavage at doses of approximately 20 or 40 mg/kg parent compound equivalents to 6-hour fasted, Sprague Dawley rats (220-240 g). The rats were subsequently placed in metabolic cages and urine was collected for 24 hours. The quantity of parent compound excreted into urine was determined by HPLC analysis. An ODS column eluted with a gradient from potassium phosphate buffer, pH 5.5 to acetonitrile was employed for these measurements. Detection was at 310-325 nm. […] Parent compounds were typically dissolved in dimethyl sulfoxide, and administered via the tail vein in animals that were briefly anesthetized with halothane."}, "mouse liver FBPase": {"target": "T3, mouse liver FBPase (Mus musculus, UniProt Q9QXD6)", "T3 construct": "This partially purified fraction was used for enzyme assays; from tissue; host or cells: mouse liver, 45-75% ammonium sulfate fraction", "T3 sequence (Q9QXD6 2-338 limits assumed)": "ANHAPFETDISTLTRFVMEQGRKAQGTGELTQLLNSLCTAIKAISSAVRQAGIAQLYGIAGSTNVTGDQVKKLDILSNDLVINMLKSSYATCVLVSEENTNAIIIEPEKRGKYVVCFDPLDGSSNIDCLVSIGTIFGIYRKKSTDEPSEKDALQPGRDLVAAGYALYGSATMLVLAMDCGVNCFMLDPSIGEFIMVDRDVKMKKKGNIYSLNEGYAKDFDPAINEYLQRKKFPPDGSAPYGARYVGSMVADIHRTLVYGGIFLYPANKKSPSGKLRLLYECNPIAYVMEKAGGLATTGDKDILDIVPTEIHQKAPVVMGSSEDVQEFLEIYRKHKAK", "experiment": "Inhibition of mouse liver FBPase", "format": "biochemical", "conditions": "partially purified mouse liver fraction", "method": "Enzymatic activity was measured spectrophotometrically in reactions that coupled the formation of product (fructose 6-phosphate) to the reduction of dimethylthiazoldiphenyltetrazolium bromide (MTT) via NADP and phenazine methosulfate (PMS), using phosphoglucose isomerase and glucose 6-phosphate dehydrogenase as the coupling enzymes. Reaction mixtures (200 μl) were made up in 96-well microtitre plates, and consisted of 50 mM Tris-HCl, pH 7.4, 100 mM KCl, 5 mM EGTA, 2 mM MgCl2, 0.2 mM NADP, 1 mg/ml BSA, 1 mM MTT, 0.6 mM PMS, 1 unit/mL phosphoglucose isomerase, 2 units/mL glucose 6-phosphate dehydrogenase, and 0.150 mM substrate (fructose 1,6-bisphosphate). Inhibitor concentrations were varied from 0.01 μM to 10 μM.\nMouse liver FBPase was obtained by homogenizing freshly isolated mouse liver in 100 mM Tris-HCl buffer, pH 7.4, containing 1 mM EGTA, and 10% glycerol. […] This fraction was redissolved in the homogenization buffer and desalted on a PD-10 gel filtration column (Biorad) eluted with same. This partially purified fraction was used for enzyme assays. Both rat liver and mouse liver FBPase were assayed as described for human liver FBPase."}}}
{"compound": "CC(C)Cn1c(-c2ccc(P(=O)(O)O)o2)nc2c(N)c(F)ccc21", "note": "[Compound 12.53, 4-Amino-5-fluoro-1-isobutyl-2-(2-phosphono-5-furanyl)benzimidazole]", "values": [{"measurement": "IC50", "setting": "rat hepatocytes; Hepatocyte, glucose production from lactate/pyruvate, isolated rat hepatocytes, 1 hour", "value": 2.4, "unit": "µM"}, {"measurement": "inhibition of glucose production in rat hepatocytes (FIG. 4)", "setting": "rat hepatocytes; result in words", "value": "inhibit glucose production in vitro in rat hepatocytes"}, {"measurement": "melting point", "value": "230 to 235", "unit": "°C"}, {"measurement": "inhibition of human liver FBPase activity (FIG. 2)", "setting": "human liver FBPase", "value": "inhibit human liver FBPase activity in vitro in a dose dependent manner"}, {"measurement": "blood glucose lowering", "setting": "[1]", "value": "55±14", "unit": "%"}]}
{"compound": "NC(=O)c1ncn([C@@H]2O[C@H](COP(=O)(O)O)[C@@H](O)[C@H]2O)c1N", "note": "[ZMP, 5-aminoimidazole-4-carboxamide riboside monophosphate, reference compound]", "values": [{"measurement": "IC50", "setting": "human liver FBPase; values in text, read-out: hlFBPase IC50", "value": 12, "unit": "µM"}, {"measurement": "EC50", "setting": "hlFBPase; displacement of 3H-AMP from hlFBPase, read-out: ED50 for AMP displacement", "value": 250, "unit": "µM"}, {"measurement": "displacement of AMP from human liver FBPase (FIG. 3)", "setting": "hlFBPase; result in words", "value": "displaced AMP from human liver FBPase in a dose dependent manner"}]}
{"compound": "CC(C)Cn1c(-c2ccc(P3(=O)OCC(CO)CO3)o2)nc2ccc(Cl)cc21", "note": "(stereo not drawn) [Compound 31.13, 6-Chloro-1-isobutyl-2-{5-[2-(hydroxymethyl)-propan-1,3-yl]phosphono-2-furanyl}benzimidazole]", "values": [{"measurement": "% Oral bioavailability", "setting": "[2]", "value": 10.9, "unit": "%"}]}
{"compound": "CC(C)(C)Cn1c(-c2ccc(P(=O)(O)O)o2)nc2c(N)ncnc21", "note": "[Compound B]", "values": [{"measurement": "% of intravenous dose recovered in urine", "setting": "[2]; intravenous approximately 10 mg/kg, 24 hour urine", "value": 76.8, "unit": "%"}]}
{"compound": "CCc1ccc2c(nc(-c3ccc(P(=O)(O)O)o3)n2CC(C)C)c1N", "note": "[Compound 12.52, 4-Amino-5-ethyl-1-isobutyl-2-(2-phosphono-5-furanyl)benzimidazole]", "values": [{"measurement": "IC50", "setting": "mouse liver FBPase", "value": 0.78, "unit": "µM"}, {"measurement": "melting point", "value": "220 to 225", "unit": "°C"}, {"measurement": "inhibition of human liver FBPase activity (FIG. 2)", "setting": "human liver FBPase", "value": "inhibit human liver FBPase activity in vitro in a dose dependent manner"}]}
{"compound": "CC(C)(C)Cn1c(-c2ccc(P(=O)(OCOC(=O)C(C)(C)C)OCOC(=O)C(C)(C)C)o2)nc2c(N)ncnc21", "note": "[Compound C]", "values": [{"measurement": "% Oral bioavailability", "setting": "[2]", "value": 5.3, "unit": "%"}]}
{"compound": "COC(=O)OCC1COP(=O)(c2ccc(-c3nc4ccc(Cl)cc4n3CC(C)C)o2)OC1", "note": "(stereo not drawn) [Compound 31.15, 6-Chloro-1-isobutyl-2-{5-[2-(methoxycarbonyloxymethyl)-propan-1,3-yl]phosphono-2-furanyl}benzimidazole]", "values": [{"measurement": "% Oral bioavailability", "setting": "[2]", "value": 14.1, "unit": "%"}]}
